Test results as given in ChEMBL document CHEMBL1201861, “Genomics of Drug Sensitity in Cancer screening data, Wellcome Trust Sanger Institute”.

How the values were obtained:
COR-L105 = experiment: cells; type: functional, cell-based, Homo sapiens
Description: SANGER: Inhibition of human COR-L105 cell growth in a cell viability assay.

SBC-5 = experiment: cells; type: functional, cell-based, Homo sapiens;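 further: cell viability assay read-out, IC50 is the concentration that inhibits growth of the cells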
Description: SANGER: Inhibition of human SBC-5 cell growth in a cell viability assay.

REH = experiment: cells; type: functional, cell-based, Homo sapiens;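 further: growth inhibition of REH cells determined with a cell viability read-out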
Description: SANGER: Inhibition of human REH cell growth in a cell viability assay.

LCLC-103H cell line = experiment: cells; type: functional, cell-based, Homo sapiens
Description: SANGER: Inhibition of human LCLC-103H cell growth in a cell viability assay.

GCT = experiment: cells; type: functional, cell-based, Homo sapiens;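 further: GCT cell line proliferation inhibition, read out with a cell viability assay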
Description: SANGER: Inhibition of human GCT cell growth in a cell viability assay.

DU-145 = experiment: cells; type: functional, cell-based, Homo sapiens
Description: SANGER: Inhibition of human DU-145 cell growth in a cell viability assay.

SK-CO-1 = experiment: cells; type: functional, cell-based, Homo sapiens;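 further: growth inhibition of SK-CO-1 cells, determined by a viability readout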
Description: SANGER: Inhibition of human SK-CO-1 cell growth in a cell viability assay.

OPM-2 = experiment: cells; type: functional, cell-based, Homo sapiens;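 further: growth of OPM-2 cells measured with a viability assay, IC50 for suppression of proliferation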
Description: SANGER: Inhibition of human OPM-2 cell growth in a cell viability assay.

COLO 205 = experiment: cells; type: functional, cell-based, Homo sapiens
Description: SANGER: Inhibition of human COLO-205 cell growth in a cell viability assay.

RPMI 8402 = experiment: SANGER: Inhibition of human RPMI-8402 cell growth in a cell viability assay.; type: functional, cell-based; settings: read-out: IC50
SAS = experiment: cells; type: functional, cell-based, Homo sapiens
Description: SANGER: Inhibition of human SAS cell growth in a cell viability assay.

647-V = experiment: cells; type: functional, cell-based, Homo sapiens;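 further: growth inhibition of 647-V cells, read out with a cell viability assay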
Description: SANGER: Inhibition of human 647-V cell growth in a cell viability assay.

HCT-15 = experiment: cells; type: functional, cell-based, Homo sapiens;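 further: cell viability readout, IC50 reflecting suppression of HCT-15 cell growth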
Description: SANGER: Inhibition of human HCT-15 cell growth in a cell viability assay.

OAW-28 = experiment: cells; type: functional, cell-based, Homo sapiens;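 further: growth inhibition of OAW-28 cells, read out with a cell viability assay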
Description: SANGER: Inhibition of human OAW-28 cell growth in a cell viability assay.

LOUCY = experiment: cells; type: functional, cell-based, Homo sapiens
Description: SANGER: Inhibition of human LOUCY cell growth in a cell viability assay.

L-540 = experiment: cells; type: functional, cell-based, Homo sapiens;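 further: growth inhibition of the human L-540 cell line, read out with a viability assay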
Description: SANGER: Inhibition of human L-540 cell growth in a cell viability assay.

NCI-H889 = experiment: cells; type: functional, cell-based, Homo sapiens
Description: SANGER: Inhibition of human NCI-H889 cell growth in a cell viability assay.

DMS-53 = experiment: cells; type: functional, cell-based, Homo sapiens;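 further: cell viability assay measuring growth inhibition of human DMS-53 cells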
Description: SANGER: Inhibition of human DMS-53 cell growth in a cell viability assay.

Calu-1 = experiment: SANGER: Inhibition of human Calu-1 cell growth in a cell viability assay.; type: functional, cell-based
EW-7 = experiment: SANGER: Inhibition of human EW-7 cell growth in a cell viability assay.; type: functional, cell-based
SNU-475 = experiment: cells; type: functional, cell-based, Homo sapiens
Description: SANGER: Inhibition of human SNU-475 cell growth in a cell viability assay.

SK-MEL-28 = experiment: cells; type: functional, cell-based, Homo sapiens;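 further: growth inhibition of human SK-MEL-28 cells, read out with a cell viability assay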
Description: SANGER: Inhibition of human SK-MEL-28 cell growth in a cell viability assay.

MFE-296 = experiment: SANGER: Inhibition of human MFE-296 cell growth in a cell viability assay.; type: functional, cell-based
EFE-184 = experiment: cells; type: functional, cell-based, Homo sapiens
Description: SANGER: Inhibition of human EFE-184 cell growth in a cell viability assay.

IPC-298 = experiment: SANGER: Inhibition of human IPC-298 cell growth in a cell viability assay.; type: functional, cell-based
NCI-H838 = experiment: cells; type: functional, cell-based, Homo sapiens;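 further: growth inhibition of human NCI-H838 cells, read out by a cell viability assay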
Description: SANGER: Inhibition of human NCI-H838 cell growth in a cell viability assay.

UACC-62 = experiment: cells; type: functional, cell-based, Homo sapiens;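 further: growth inhibition of human UACC-62 cells, read out by a cell viability assay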
Description: SANGER: Inhibition of human UACC-62 cell growth in a cell viability assay.

MDA-MB-468 = experiment: cells; type: functional, cell-based, Homo sapiens
Description: SANGER: Inhibition of human MDA-MB-468 cell growth in a cell viability assay.

NCI-H1882 = experiment: cells; type: functional, cell-based, Homo sapiens;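 further: growth inhibition of the cell line, determined with a viability assay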
Description: SANGER: Inhibition of human NCI-H1882 cell growth in a cell viability assay.

SCC-4 = experiment: cells; type: functional, cell-based, Homo sapiens;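 further: growth inhibition of human SCC-4 cells, read out as cell viability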
Description: SANGER: Inhibition of human SCC-4 cell growth in a cell viability assay.

SNU-16 = experiment: cells; type: functional, cell-based, Homo sapiens;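 further: growth inhibition of human SNU-16 cells, determined with a cell viability readout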
Description: SANGER: Inhibition of human NCI-SNU-16 cell growth in a cell viability assay.

NCI-H345 = experiment: cells; type: functional, cell-based, Homo sapiens;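 further: growth inhibition of NCI-H345 cells measured with a cell viability assay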
Description: SANGER: Inhibition of human NCI-H345 cell growth in a cell viability assay.

EFM-19 = experiment: cells; type: functional, cell-based, Homo sapiens;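 further: growth inhibition of human EFM-19 cells, measured in a cell viability assay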
Description: SANGER: Inhibition of human EFM-19 cell growth in a cell viability assay.

SW780 = experiment: cells; type: functional, cell-based, Homo sapiens
Description: SANGER: Inhibition of human SW780 cell growth in a cell viability assay.

NCI-H1618 = experiment: cells; type: functional, cell-based, Homo sapiens;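 further: growth inhibition of human NCI-H1618 cells, measured by a cell viability assay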
Description: SANGER: Inhibition of human NCI-H1618 cell growth in a cell viability assay.

BEN = experiment: cells; type: functional, cell-based, Homo sapiens;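 further: growth inhibition of the BEN cell line, read out with a cell viability assay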
Description: SANGER: Inhibition of human BEN cell growth in a cell viability assay.

Panc1005 = experiment: cells; type: functional, cell-based, Homo sapiens;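 further: growth inhibition of human PANC-10-05 cells, measured by a cell viability assay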
Description: SANGER: Inhibition of human PANC-10-05 cell growth in a cell viability assay.

TALL-1 = experiment: cells; type: functional, cell-based, Homo sapiens;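 further: growth inhibition of cultured human TALL-1 cells, read out by a cell viability assay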
Description: SANGER: Inhibition of human TALL-1 cell growth in a cell viability assay.

CHP-126 = experiment: cells; type: functional, cell-based, Homo sapiens
Description: SANGER: Inhibition of human CHP-126 cell growth in a cell viability assay.

HuP-T4 = experiment: cells; type: functional, cell-based, Homo sapiens;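 further: cell viability assay measuring how much HuP-T4 cell growth is inhibited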
Description: SANGER: Inhibition of human HuP-T4 cell growth in a cell viability assay.

HCC1143 = experiment: cells; type: functional, cell-based, Homo sapiens;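 further: growth inhibition of human HCC1143 cells, read out with a cell viability assay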
Description: SANGER: Inhibition of human HCC1143 cell growth in a cell viability assay.

UACC-812 = experiment: cells; type: functional, cell-based, Homo sapiens
Description: SANGER: Inhibition of human UACC-812 cell growth in a cell viability assay.

COc1cccc2c1C(=O)c1c(O)c3c(c(O)c1C2=O)C[C@@](O)(C(=O)CO)C[C@@H]3O[C@H]1C[C@H](N)[C@H](O)[C@H](C)O1 [DOXORUBICIN]
IC50 (COR-L105; Homo sapiens, COR-L105): 0.189 µM
IC50 (SBC-5; Homo sapiens, SBC-5): 0.0207 µM
IC50 (REH; Homo sapiens, REH): 0.00811 µM
IC50 (LCLC-103H cell line; Homo sapiens, LCLC-103H): 0.0205 µM
IC50 (GCT; Homo sapiens, GCT): 0.861 µM
IC50 (DU-145; Homo sapiens, DU-145): 0.0737 µM
IC50 (SK-CO-1; Homo sapiens, SK-CO-1): 0.129 µM
IC50 (OPM-2; Homo sapiens, OPM-2): 0.502 µM
IC50 (COLO 205; Homo sapiens, COLO 205): 0.027 µM
IC50 (RPMI 8402; Homo sapiens, RPMI 8402): 0.0539 µM
IC50 (SAS; Homo sapiens, SAS): 0.114 µM
IC50 (647-V; Homo sapiens, 647-V): 0.0188 µM
IC50 (HCT-15; Homo sapiens, HCT-15): > 1.02 µM
IC50 (OAW-28; Homo sapiens, OAW-28): 0.179 µM
IC50 (LOUCY; Homo sapiens, LOUCY): 0.0213 µM
IC50 (L-540; Homo sapiens, L-540): 0.213 µM
IC50 (NCI-H889; Homo sapiens, NCI-H889): > 1.02 µM
IC50 (DMS-53; Homo sapiens, DMS-53): > 1.02 µM
IC50 (Calu-1; Homo sapiens, Calu-1): 0.0736 µM
IC50 (EW-7; Homo sapiens, EW-7): 0.0306 µM
IC50 (SNU-475; Homo sapiens, SNU-475): > 1.02 µM
IC50 (SK-MEL-28; Homo sapiens, SK-MEL-28): > 1.02 µM
IC50 (MFE-296; Homo sapiens, MFE-296): 0.0705 µM
IC50 (EFE-184; Homo sapiens, EFE-184): > 1.02 µM
IC50 (IPC-298; Homo sapiens, IPC-298): 0.196 µM
IC50 (NCI-H838; Homo sapiens, NCI-H838): 0.225 µM
IC50 (UACC-62; Homo sapiens, UACC-62): > 1.02 µM
IC50 (MDA-MB-468; Homo sapiens, MDA-MB-468): 0.0762 µM
IC50 (NCI-H1882; Homo sapiens, NCI-H1882): 0.215 µM
IC50 (SCC-4; Homo sapiens, SCC-4): 0.184 µM
IC50 (SNU-16; Homo sapiens, SNU-16): > 1.02 µM
IC50 (NCI-H345; Homo sapiens, NCI-H345): > 1.02 µM
IC50 (EFM-19; Homo sapiens, EFM-19): 0.478 µM
IC50 (SW780; Homo sapiens, SW780): > 1.02 µM
IC50 (NCI-H1618; Homo sapiens, NCI-H1618): 0.104 µM
IC50 (BEN; Homo sapiens, BEN): > 1.02 µM
IC50 (Panc1005; Homo sapiens, Panc1005): 0.0884 µM
IC50 (TALL-1; Homo sapiens, TALL-1): > 1.02 µM
IC50 (CHP-126; Homo sapiens, CHP-126): 0.0592 µM
IC50 (HuP-T4; Homo sapiens, HuP-T4): 0.0522 µM
IC50 (HCC1143; Homo sapiens, HCC1143): > 1.02 µM
IC50 (UACC-812; Homo sapiens, UACC-812): > 1.02 µM

BLEOMYCIN
IC50 (COR-L105; cor-l105): 7.37 µM
IC50 (SBC-5; sbc-5): 0.624 µM
IC50 (REH; reh): 0.0134 µM
IC50 (LCLC-103H cell line; lclc-103h): 0.144 µM
IC50 (GCT; gct): 4.99 µM
IC50 (DU-145; du-145): 0.823 µM
IC50 (SK-CO-1; sk-co-1): 0.247 µM
IC50 (OPM-2; opm-2): 104 µM
IC50 (COLO 205; colo-205): 3.24 µM
IC50 (RPMI 8402; rpmi-8402): 30.7 µM
IC50 (SAS; sas): 3.26 µM
IC50 (647-V; 647-v): 1.73 µM
IC50 (HCT-15; hct-15): 0.0951 µM
IC50 (OAW-28; oaw-28): 9.21 µM
IC50 (LOUCY; loucy): 0.00993 µM
IC50 (L-540; l-540): 23.5 µM
IC50 (NCI-H889; nci-h889): 513 µM
IC50 (DMS-53; dms-53): 319 µM
IC50 (Calu-1; calu-1): 5.14 µM
IC50 (EW-7; ew-7): 3.06 µM
IC50 (SNU-475; snu-475): 67.5 µM
IC50 (SK-MEL-28; sk-mel-28): 1860 µM
IC50 (MFE-296; mfe-296): 0.153 µM
IC50 (EFE-184; efe-184): 383 µM
IC50 (IPC-298; ipc-298): 2.21 µM
IC50 (NCI-H838; nci-h838): 5.95 µM
IC50 (UACC-62; uacc-62): 188 µM
IC50 (MDA-MB-468; mda-mb-468): 67.6 µM
IC50 (NCI-H1882; nci-h1882): 11.5 µM
IC50 (SCC-4; scc-4): 2.43 µM
IC50 (SNU-16; snu-16): 16100 µM
IC50 (NCI-H345; nci-h345): 814 µM
IC50 (EFM-19; efm-19): 0.0148 µM
IC50 (SW780; sw780): 8140 µM
IC50 (NCI-H1618; nci-h1618): 5.99 µM
IC50 (BEN; ben): 46 µM
IC50 (Panc1005; panc1005): 0.256 µM
IC50 (TALL-1; tall-1): 244 µM
IC50 (CHP-126; chp-126): 1.27 µM
IC50 (HuP-T4; hup-t4): 1.31 µM
IC50 (HCC1143; hcc1143): 27.2 µM
IC50 (UACC-812; uacc-812): 99.6 µM
